This experiment addresses T1, Catalase (from bovine liver) (Bos taurus, UniProt P00432).
T1 construct: Catalase (from bovine liver); purchased Sigma-Aldrich, St. Louis, MO, USA; host or cells: bovine liver
T1 sequence (P00432 2-527 limits assumed): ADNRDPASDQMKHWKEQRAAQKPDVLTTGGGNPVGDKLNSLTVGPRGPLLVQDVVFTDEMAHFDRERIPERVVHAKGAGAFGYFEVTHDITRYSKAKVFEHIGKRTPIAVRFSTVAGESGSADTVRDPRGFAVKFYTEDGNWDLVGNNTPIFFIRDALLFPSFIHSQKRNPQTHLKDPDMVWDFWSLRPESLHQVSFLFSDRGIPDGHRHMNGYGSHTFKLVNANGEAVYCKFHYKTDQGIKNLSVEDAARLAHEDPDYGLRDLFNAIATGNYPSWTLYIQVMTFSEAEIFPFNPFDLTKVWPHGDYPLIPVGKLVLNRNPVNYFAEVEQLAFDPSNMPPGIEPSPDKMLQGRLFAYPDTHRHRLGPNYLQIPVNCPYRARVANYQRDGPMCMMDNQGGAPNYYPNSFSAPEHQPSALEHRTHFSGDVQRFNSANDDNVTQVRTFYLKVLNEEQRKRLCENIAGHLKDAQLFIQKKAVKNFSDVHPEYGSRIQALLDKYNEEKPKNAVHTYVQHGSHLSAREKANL
The experiment can be described thus: Isothermal titration calorimetry of catechins binding to catalase. To be noted: 25°C. As for the experimental part: The energetics of the binding of catechins to catalase was studied by ITC using a MicroCal ITC200, (Northampton, MA, USA). All solutions were degassed under vacuum (140 mbar, 10 min) on the MicroCal’s Thermovac unit to eliminate air bubble formation inside the calorimeter cell. Briefly, the calorimeter syringe was filled with a concentrated solution of catechins (10 µM each). Successive injections of this solution into 1 µM solution of catalase in the calorimeter cell were effected from the rotating syringe with constant stirring of the solution. The titration and analysis were performed through Origin 7 software provided with the unit.
ITC directly measures the heat released during a chemical reaction. ITC can reveal the stoichiometry, enthalpy free energy, and entropy changes that occur over the course of a reaction, [46]. Data obtained from the titration are presented by the series of peaks corresponding to each injection. Usually, this representation is transformed into the apparent heat change between two injections as a function of the titrant ratio by means of integration of power differential with regard to time. ITC has been used mainly to quantify interactions in various biochemical systems [47]–[49]. ITC has been used in the present study to determine binding affinity and other thermodynamic parameters of catechins-catalase interaction. Representative isothermal calorimetric heat profiles for the binding of catechins-catalase interaction, at physiological pH and 25°C are shown in Figure 4 (A–D). The data were corrected for the heat of dilution of catechins, which was determined in a separate set of experiments under identical conditions. The titration and analysis were performed using one-site binding model through Origin 7 software provided with the unit. From Figure 4 it is observed that the titration of catalase with all the four catechins yield negative heat deflections. EC, EGC, ECG, and EGCG bind to catalase with binding constants 2.13×10^5, 1.92×10^5, 6.36×10^5, and 8.19×10^5 M^−1, respectively, as determined by the following equation: ΔG = −RT ln K, where ΔG is the free energy, R and T are the gas constant and temperature, respectively, K is the binding constant.
(In general: In ITC the heat of successive injections is recorded.)

Where [1] appears, read: ITC, directly extracted from the experiment.

In the case of `O=C(O[C@@H]1Cc2c(O)cc(O)cc2O[C@@H]1c1cc(O)c(O)c(O)c1)c1cc(O)c(O)c(O)c1` [EGCG, (−)-epigallocatechin gallate], the ΔG (ITC, calculated from the average values of ΔH) was -7.95 kcal/mol. Moreover, under setting [1], the ΔH is -450 ± 22.5 kcal/mol and the ΔS was −1.48×10^3 cal/mol/K. Also, under “one-site binding model, from ΔG = −RT ln K, read-out: binding constant with catalase (ITC) (converted)”, the Kd is 1220 nM.

Source of the values: publication PMC4099323, “Inhibition of Catalase by Tea Catechins in Free and Cellular State: A Biophysical Approach” (PLoS ONE, 2014).
